# In patent US20090143279A1 (priority 2007, published 2009):
# Like-named read-outs stand apart in the source and are kept apart here.
# Assays:
# cytochrome c = type: cell-based, mouse; settings: for cyt c (composite Z-score): normalized score vs mock-treated (DMSO) wells
# reactive oxygen species = type: cell-based, mouse; settings: for ROS (composite Z-score): normalized score vs mock-treated (DMSO) wells
# [1] = test system: cellular dehydrogenase activity; settings: for MTT (composite Z-score): normalized score vs mock-treated (DMSO) wells
# mtOXPHOS transcripts = type: cell-based, mouse; settings: for mitoOX (composite Z-score): normalized score vs mock-treated (DMSO) wells
# OXPHOS gene expression = type: cell-based, mouse; settings: for GE-HTS (composite Z-score): normalized score vs mock-treated (DMSO) wells
# [2] = test system: mitochondrial membrane potential; type: cell-based, mouse; settings: for ΔΨm (composite Z-score): normalized score vs mock-treated (DMSO) wells
# nuOXPHOS transcripts = type: cell-based, mouse; settings: for nucOX (composite Z-score): normalized score vs mock-treated (DMSO) wells
# C2C12 myotubes = settings: for Viability (composite Z-score): normalized score vs mock-treated (DMSO) wells
# [3] = normalized score (composite Z-score vs DMSO mock-treated wells), compound concentration (μM)
# [4] = 20 μM, composite Z-score vs DMSO
# [5] = normalized composite Z-score vs mock-treated (DMSO) wells, Conc 20 μM
# [6] = composite Z-score vs DMSO, Conc 20 μM
# [7] = composite Z-score vs mock-treated (DMSO) wells, Conc 20 μM
# [8] = composite Z-score vs DMSO wells, Conc 20 μM
smiles,measurement,setting,value
OCC(O)COc1ccc(Cl)cc1 (stereo not drawn) [chlorphensin],cyt c,cytochrome c; [3],−0.522
same,ROS,reactive oxygen species; [3],0.692
same,MTT,[1]; [3],−0.356
same,mitoOX,mtOXPHOS transcripts; [3],−0.766
same,GE-HTS,OXPHOS gene expression; [3],−0.696
same,ΔΨm,[2]; [3],−0.419
same,nucOX,nuOXPHOS transcripts; [3],−0.613
same,Viability,C2C12 myotubes; [3],−1.132
NS(=O)(=O)c1cc(C2(O)NC(=O)c3ccccc32)ccc1Cl (stereo not drawn) [chlorthalidone],cyt c,cytochrome c,0.531
same,cyt c,cytochrome c; [4],0.066
same,ROS,reactive oxygen species,1.047
same,ROS,reactive oxygen species; [4],1.655
same,MTT,[1],−1.736
same,MTT,[1]; [4],−1.134
same,mitoOX,mtOXPHOS transcripts,−0.641
same,mitoOX,mtOXPHOS transcripts; [4],0.877
same,GE-HTS,OXPHOS gene expression,−0.236
same,GE-HTS,OXPHOS gene expression; [4],0.793
same,ΔΨm,[2],−0.750
same,ΔΨm,[2]; [4],−0.257
same,nucOX,nuOXPHOS transcripts,−0.009
same,nucOX,nuOXPHOS transcripts; [4],0.646
same,Viability,C2C12 myotubes,0.081
same,Viability,C2C12 myotubes; [4],0.308
C[C@H](CCC(=O)O)[C@H]1CC[C@H]2[C@@H]3CCC4CCCC[C@]4(C)[C@H]3C=C[C@]12C (stereo partly drawn) [chol-11-enic acid],cyt c,cytochrome c; [5],0.383
same,ROS,reactive oxygen species; [5],0.737
same,MTT,[1]; [5],−1.164
same,mitoOX,mtOXPHOS transcripts; [5],0.246
same,GE-HTS,OXPHOS gene expression; [5],−0.069
same,ΔΨm,[2]; [5],−0.652
same,nucOX,nuOXPHOS transcripts; [5],−0.195
same,Viability,C2C12 myotubes; [5],−0.456
"CC(C)CCC[C@@H](C)[C@H]1CC[C@H]2[C@@H]3C[C@@H](O)[C@@]4(O)C[C@@H](O)CC[C@]4(C)[C@H]3CC[C@]12C [cholestan-3beta,5alpha,6beta-triol]",cyt c (composite Z-score),cytochrome c; Conc 20 μM,0.815
same,ROS (composite Z-score),reactive oxygen species; Conc 20 μM,1.000
same,MTT (composite Z-score),[1]; Conc 20 μM,0.120
same,mitoOX (composite Z-score),mtOXPHOS transcripts; Conc 20 μM,0.074
same,GE-HTS (composite Z-score),OXPHOS gene expression; Conc 20 μM,0.382
same,ΔΨm (composite Z-score),[2]; Conc 20 μM,−0.575
same,nucOX (composite Z-score),nuOXPHOS transcripts; Conc 20 μM,0.523
same,Viability (composite Z-score),C2C12 myotubes; Conc 20 μM,−0.869
CC(C)CCC[C@@H](C)[C@H]1CC[C@H]2[C@@H]3CCC4CCCC[C@]4(C)[C@H]3CC[C@]12C (stereo partly drawn) [cholestane],cyt c,cytochrome c; [6],0.043
same,ROS,reactive oxygen species; [6],0.155
same,MTT,[1]; [6],−1.057
same,mitoOX,mtOXPHOS transcripts; [6],−0.640
same,GE-HTS,OXPHOS gene expression; [6],−0.678
same,ΔΨm,[2]; [6],−0.945
same,nucOX,nuOXPHOS transcripts; [6],−0.651
same,Viability,C2C12 myotubes; [6],0.941
CC(C)CCC[C@@H](C)C1CC[C@H]2[C@@H]3CCC4CC(=O)CC[C@]4(C)[C@H]3CC[C@]12C (stereo partly drawn) [cholestanone],cyt c (composite Z-score),cytochrome c; Conc 20 μM,0.272
same,ROS (composite Z-score),reactive oxygen species; Conc 20 μM,1.864
same,MTT (composite Z-score),[1]; Conc 20 μM,−2.192
same,mitoOX (composite Z-score),mtOXPHOS transcripts; Conc 20 μM,0.214
same,GE-HTS (composite Z-score),OXPHOS gene expression; Conc 20 μM,0.165
same,ΔΨm (composite Z-score),[2]; Conc 20 μM,−1.065
same,nucOX (composite Z-score),nuOXPHOS transcripts; Conc 20 μM,0.147
same,Viability (composite Z-score),C2C12 myotubes; Conc 20 μM,−0.208
CC(=O)O[C@H]1CC[C@@]2(C)C(=CC[C@H]3[C@@H]4CC[C@H]([C@H](C)CCCC(C)C)[C@@]4(C)CC[C@@H]32)C1 [cholesteryl acetate],cyt c,cytochrome c; [6],0.097
same,ROS,reactive oxygen species; [6],0.524
same,MTT,[1]; [6],−2.138
same,mitoOX,mtOXPHOS transcripts; [6],0.142
same,GE-HTS,OXPHOS gene expression; [6],0.228
same,ΔΨm,[2]; [6],−0.657
same,nucOX,nuOXPHOS transcripts; [6],0.273
same,Viability,C2C12 myotubes; [6],−1.471
"COC(=O)CC[C@@H](C)[C@H]1CC[C@H]2[C@@H]3[C@H](O)C[C@@H]4C[C@H](O)CC[C@]4(C)[C@H]3C[C@H](O)[C@]12C [cholic acid, methyl ester]",cyt c,cytochrome c; [5],0.018
same,ROS,reactive oxygen species; [5],0.295
same,MTT,[1]; [5],−1.021
same,mitoOX,mtOXPHOS transcripts; [5],−0.394
same,GE-HTS,OXPHOS gene expression; [5],−0.751
same,ΔΨm,[2]; [5],0.065
same,nucOX,nuOXPHOS transcripts; [5],−0.852
same,Viability,C2C12 myotubes; [5],−0.383
N[C@H]1C(O)O[C@H](CO)[C@H](O)[C@@H]1O[C@@H]1O[C@H](C(=O)O)[C@@H](O)[C@H](O)[C@H]1O (stereo partly drawn) [chondrosine],cyt c,cytochrome c; [6],0.040
same,ROS,reactive oxygen species; [6],0.741
same,MTT,[1]; [6],−1.759
same,mitoOX,mtOXPHOS transcripts; [6],−0.476
same,GE-HTS,OXPHOS gene expression; [6],−0.743
same,ΔΨm,[2]; [6],−1.001
same,nucOX,nuOXPHOS transcripts; [6],−0.782
same,Viability,C2C12 myotubes; [6],−0.800
CC1OC(OC2C(O)COC(OC3C(C)OC(OC4C(OC(=O)C56CCC(C)(C)CC5C5=CCC7C8(C)CCC(OC9OC(CO)C(O)C(O)C9O)C(C)(C)C8CCC7(C)C5(C)CC6O)OCC(O)C4O)C(O)C3O)C2O)C(O)C(O)C1O (stereo not drawn) [chrysanthellin A],cyt c,cytochrome c; [5],−4.088
same,ROS,reactive oxygen species; [5],−1.565
same,MTT,[1]; [5],−4.661
same,mitoOX,mtOXPHOS transcripts; [5],0.474
same,GE-HTS,OXPHOS gene expression; [5],−0.126
same,ΔΨm,[2]; [5],−1.860
same,nucOX,nuOXPHOS transcripts; [5],−0.394
same,Viability,C2C12 myotubes; [5],−4.075
CC(C)=CC1C(CO)C1(C)C (stereo not drawn) [chrysanthemyl alcohol],cyt c,cytochrome c; [5],0.264
same,ROS,reactive oxygen species; [5],0.345
same,MTT,[1]; [5],−0.004
same,mitoOX,mtOXPHOS transcripts; [5],0.331
same,GE-HTS,OXPHOS gene expression; [5],0.456
same,ΔΨm,[2]; [5],−0.734
same,nucOX,nuOXPHOS transcripts; [5],0.495
same,Viability,C2C12 myotubes; [5],0.604
Cc1cc(O)c2c(O)c3c(O)cccc3cc2c1 [chrysarobin],cyt c,cytochrome c; [7],−0.074
same,ROS,reactive oxygen species; [7],0.805
same,MTT,[1]; [7],−1.646
same,mitoOX,mtOXPHOS transcripts; [7],−0.401
same,GE-HTS,OXPHOS gene expression; [7],−1.153
same,ΔΨm,[2]; [7],−0.726
same,nucOX,nuOXPHOS transcripts; [7],−1.387
same,Viability,C2C12 myotubes; [7],−0.685
COc1cc(OC)c2c(=O)cc(-c3ccccc3)oc2c1 [chrysin dimethyl ether],cyt c (composite Z-score),cytochrome c; Conc 20 μM,−1.016
same,ROS (composite Z-score),reactive oxygen species; Conc 20 μM,1.158
same,MTT (composite Z-score),[1]; Conc 20 μM,−1.043
same,mitoOX (composite Z-score),mtOXPHOS transcripts; Conc 20 μM,0.470
same,GE-HTS (composite Z-score),OXPHOS gene expression; Conc 20 μM,0.480
same,ΔΨm (composite Z-score),[2]; Conc 20 μM,0.541
same,nucOX (composite Z-score),nuOXPHOS transcripts; Conc 20 μM,0.444
same,Viability (composite Z-score),C2C12 myotubes; Conc 20 μM,−0.006
O=c1cc(-c2ccccc2)oc2cc(O)cc(O)c12 [chrysin],cyt c,cytochrome c,0.920
same,cyt c,cytochrome c; [8],0.655
same,ROS,reactive oxygen species; [8],0.949
same,MTT,[1]; [8],−1.566
same,mitoOX,mtOXPHOS transcripts; [8],−0.552
same,GE-HTS,OXPHOS gene expression; [8],−0.137
same,ΔΨm,[2]; [8],−0.941
same,nucOX,nuOXPHOS transcripts; [8],0.071
same,Viability,C2C12 myotubes; [8],−0.802
COC(=O)C[C@H]1C2(C)CC34OC5(C)O[C@@]6([C@H](OC)C(OC(=O)C(C)C)[C@]7(C)C(/C(=C(/OC)C(C)C)C(=O)O[C@H]7c7ccoc7)[C@@]6(O5)[C@H](OC)[C@@]3(OC)C2OC(C)=O)[C@]14C (stereo partly drawn) [chukrasin methyl ether],cyt c,cytochrome c; [7],−0.248
same,ROS,reactive oxygen species; [7],0.777
same,MTT,[1]; [7],−0.818
same,mitoOX,mtOXPHOS transcripts; [7],0.198
same,GE-HTS,OXPHOS gene expression; [7],0.352
same,ΔΨm,[2]; [7],−1.084
same,nucOX,nuOXPHOS transcripts; [7],0.417
same,Viability,C2C12 myotubes; [7],−0.822
"Oc1cc(O)c2c(c1)O[C@H](c1ccc(O)c(O)c1)[C@@H](O)C2 [cianidanol, reference compound]",cyt c,cytochrome c; [8],0.639
same,ROS,reactive oxygen species; [8],−0.371
same,MTT,[1]; [8],−1.471
same,mitoOX,mtOXPHOS transcripts; [8],0.347
same,GE-HTS,OXPHOS gene expression; [8],−0.113
same,ΔΨm,[2]; [8],−1.746
same,nucOX,nuOXPHOS transcripts; [8],−0.357
same,Viability,C2C12 myotubes; [8],0.630
Cc1cc(C2CCCCC2)n(O)c(=O)c1 [ciclopirox olamine],cyt c,cytochrome c; [4],−0.381
same,ROS,reactive oxygen species; [4],−1.545
same,MTT,[1]; [4],−3.390
same,mitoOX,mtOXPHOS transcripts; [4],−0.569
same,GE-HTS,OXPHOS gene expression; [4],−0.965
same,ΔΨm,[2]; [4],2.355
same,nucOX,nuOXPHOS transcripts; [4],−1.098
same,Viability,C2C12 myotubes; [4],−1.409
CC1=C2C(=CO[C@H](C)[C@H]2C)C(O)=C(C(=O)O)C1=O [citrinin],cyt c,cytochrome c; [8],0.012
same,ROS,reactive oxygen species; [8],0.122
same,MTT,[1]; [8],−0.980
same,mitoOX,mtOXPHOS transcripts; [8],0.218
same,GE-HTS,OXPHOS gene expression; [8],0.608
same,ΔΨm,[2]; [8],−0.590
same,nucOX,nuOXPHOS transcripts; [8],0.730
same,Viability,C2C12 myotubes; [8],−0.040
